# From patent US10272081B2, “SHIP1 modulators and methods related thereto” (Aquinox Pharmaceuticals (Canada) Inc., priority 2013, dated 2019)
# How the values were obtained:
# [1] = system: carrageenan paw edema in mice; assay: Carrageenan paw edema in mice; format: in vivo; conditions: 30 mg/kg orally one hour before carrageenan, 4 hours after carrageenan
# Method: The activity of representative compounds on carrageenan paw edema in mice was evaluated according to the procedures disclosed by Winter et al., Proc Soc Exp Biol Med 111, 544-547, 1962 which is incorporated herein by reference in its entirety.
# To induce edema in the paw, test compounds were administered orally one hour before intraplantar injection of the right hind paw with carrageenan (50 μL of 1% suspension). Hind paw edema, as a measure of inflammation, was recorded using a plethysmometer (Ugo Basile, Italy) 4 hours after λ-carrageenan administration.
# His-hSHIP1 enzyme = target: T1, His-hSHIP1 enzyme (Homo sapiens, UniProt Q92835); assay: His-hSHIP1 activity, approach 1 (phosphate release from IP4, Biomol Green); format: biochemical; conditions: activation of His-hSHIP1; IP4 50 μM; test compound 0-300 μM; no asterisk in Table 2
# T1 construct: His
# T1 sequence (Q92835 1-1189): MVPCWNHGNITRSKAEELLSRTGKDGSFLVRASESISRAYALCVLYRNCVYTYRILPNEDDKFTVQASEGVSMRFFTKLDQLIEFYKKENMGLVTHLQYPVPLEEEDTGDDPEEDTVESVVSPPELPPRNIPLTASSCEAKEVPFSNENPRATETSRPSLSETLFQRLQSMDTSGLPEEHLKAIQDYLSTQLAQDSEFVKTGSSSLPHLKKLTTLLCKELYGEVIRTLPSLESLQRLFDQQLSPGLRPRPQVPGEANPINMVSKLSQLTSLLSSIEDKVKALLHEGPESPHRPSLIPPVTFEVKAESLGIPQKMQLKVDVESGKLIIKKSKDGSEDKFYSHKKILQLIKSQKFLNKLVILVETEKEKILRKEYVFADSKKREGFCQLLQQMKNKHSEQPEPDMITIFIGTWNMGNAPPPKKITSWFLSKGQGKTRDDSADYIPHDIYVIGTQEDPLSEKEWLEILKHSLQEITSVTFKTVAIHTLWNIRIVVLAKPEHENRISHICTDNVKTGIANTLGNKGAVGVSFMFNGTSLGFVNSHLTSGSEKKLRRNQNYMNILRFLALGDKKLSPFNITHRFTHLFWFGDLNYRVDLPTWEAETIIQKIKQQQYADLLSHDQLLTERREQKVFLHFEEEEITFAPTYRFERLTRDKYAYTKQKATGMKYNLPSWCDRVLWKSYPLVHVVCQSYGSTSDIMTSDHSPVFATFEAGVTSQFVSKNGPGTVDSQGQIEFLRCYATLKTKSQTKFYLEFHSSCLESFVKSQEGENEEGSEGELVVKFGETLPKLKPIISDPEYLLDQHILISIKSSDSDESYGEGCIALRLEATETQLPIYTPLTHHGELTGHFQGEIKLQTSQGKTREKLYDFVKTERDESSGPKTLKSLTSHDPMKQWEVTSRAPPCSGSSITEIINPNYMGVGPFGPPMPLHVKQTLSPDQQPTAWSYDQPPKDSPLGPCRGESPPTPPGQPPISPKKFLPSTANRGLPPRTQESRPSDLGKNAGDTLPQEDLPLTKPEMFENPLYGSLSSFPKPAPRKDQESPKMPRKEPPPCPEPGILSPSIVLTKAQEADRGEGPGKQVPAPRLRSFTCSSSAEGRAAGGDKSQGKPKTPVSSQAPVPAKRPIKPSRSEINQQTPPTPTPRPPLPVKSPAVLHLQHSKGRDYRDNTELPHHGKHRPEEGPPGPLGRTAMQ
# Procedure, shortened: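 Compounds at 0–300 μM final, carried in 10% ethanol, were incubated with 5-20 ng His-hSHIP1 and 50 μM IP4. Buffer was Tris pH 7.5 with 10 mM MgCl2 and Tween 20, 15 min at 37° C. Released phosphate was measured with Biomol Green as absorbance at 650 nm.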
structure (smiles),measurement,setting,value
"C[C@H]1CC[C@H]2C(C)(C)CCC[C@]2(C)[C@H]1CC(=O)c1cc(O)cc(O)c1 [Compound No. 48, 2-[(1S,2S,4aS,8aR)-2,5,5,8a-tetramethyl-decahydronaphthalen-1-yl]-1-(3,5-dihydroxyphenyl)ethan-1-one]",inhibition of carrageenan-induced paw edema,[1],21%
same,"Scoring, Approach 1 (% increase relative to background)",His-hSHIP1 enzyme,+++ (x ≥65)
